Test results from patent US12012399B2, “Microbiocidal quinoline dihydro-(thiazine)oxazine derivatives” (priority 2018, dated 2024).

Experiments:
Fusarium culmorum = experiment: microbe, parasite or virus in culture; format: cell-based; details: read-out: control of Fusarium culmorum
[1] = system: Magnaporthe grisea (Pyricularia oryzae); experiment: microbe, parasite or virus in culture; format: cell-based; details: read-out: control of Magnaporthe grisea
[2] = system: Mycosphaerella graminicola (Septoria tritici); experiment: Mycosphaerella graminicola (Septoria tritici) / liquid culture (Septoria blotch); format: cell-based; details: Zymoseptoria tritici, compared to untreated control, growth inhibition determined photometrically 4-5 days after application
[3] = system: Monographella nivalis (Microdochium nivale); experiment: Monographella nivalis (Microdochium nivale) / liquid culture (foot rot cereals); format: cell-based; details: compared to untreated control, growth inhibition determined photometrically 4-5 days after application
Sclerotinia sclerotiorum = experiment: microbe, parasite or virus in culture; format: cell-based; details: read-out: control of Sclerotinia sclerotiorum
[4] = system: Glomerella lagenarium (Colletotrichum lagenarium); experiment: Glomerella lagenarium (Colletotrichum lagenarium) / liquid culture (anthracnose); format: cell-based; details: Colletotrichum orbiculare, compared to untreated control, growth inhibition measured photometrically 3-4 days after application
[5] = system: Botryotinia fuckeliana (Botrytis cinerea); experiment: Botryotinia fuckeliana (Botrytis cinerea) / liquid culture (gray mould); format: cell-based; details: 72 h, compared to untreated control, growth inhibition determined photometrically 3-4 days after application
[6] = system: Mycosphaerella graminicola (Septoria tritici); experiment: Mycosphaerella graminicola (Septoria tritici) on wheat / preventative; format: in vivo; details: Zymoseptoria tritici, wheat plants sprayed, inoculated one day after application, assessed 16-19 days after application vs untreated control

**Q.** Which inhibition of growth at 20 ppm (Fusarium culmorum) does the source give for C[C@@]1(Cc2ccccc2)C[C@@](C)(CCl)OC(c2cnc3c(F)cccc3c2)=N1 [E-10, (4R,6S)-4-benzyl-6-(chloromethyl)-2-(8-fluoro-3-quinolyl)-4,6-dimethyl-5H-1,3-oxazine] here?
**A.** ≥ 80%

**Q.** What about the inhibition of growth at 20 ppm [1] of the same molecule?
**A.** ≥ 80%

**Q.** What about the melting point of the same molecule?
**A.** 125 to 130 °C

**Q.** And the inhibition of growth at 20 ppm [2]?
**A.** ≥ 70%

**Q.** What about the inhibition of growth at 20 ppm [3] of the same molecule?
**A.** ≥ 80%

**Q.** What about the inhibition of growth at 20 ppm (Sclerotinia sclerotiorum) of the same molecule?
**A.** ≥ 80%

**Q.** What about the inhibition of growth at 20 ppm [4] of the same molecule?
**A.** ≥ 80%

**Q.** What about the inhibition of growth at 20 ppm [5] of the same molecule?
**A.** ≥ 80%

**Q.** Which inhibition of growth at 20 ppm (Fusarium culmorum) does the source give for CC1(C)CC(Cc2ccccc2)N=C(c2cnc3c(F)cccc3c2)O1 (stereo not drawn) [E-13, 4-benzyl-2-(8-fluoro-3-quinolyl)-6,6-dimethyl-4,5-dihydro-1,3-oxazine] here?
**A.** ≥ 80%

**Q.** And the inhibition of growth at 20 ppm [1]?
**A.** ≥ 80%

**Q.** What about the melting point of the same molecule?
**A.** 90 to 92 °C

**Q.** And the inhibition of growth at 20 ppm [2]?
**A.** ≥ 70%

**Q.** And the inhibition of growth at 20 ppm [3]?
**A.** ≥ 80%

**Q.** And the inhibition of growth at 20 ppm (Sclerotinia sclerotiorum)?
**A.** ≥ 80%

**Q.** What about the inhibition of growth at 20 ppm [4] of the same molecule?
**A.** ≥ 80%

**Q.** And the inhibition of growth at 20 ppm [5]?
**A.** ≥ 80%

**Q.** Which inhibition of growth at 20 ppm (Fusarium culmorum) does the source give for Cc1nc2c(F)cccc2cc1C1=NC(C)(Cc2ccccc2)CC(C)(C)O1 (stereo not drawn) [E-16, 4-benzyl-2-(8-fluoro-2-methyl-3-quinolyl)-4,6,6-trimethyl-5H-1,3-oxazine] here?
**A.** ≥ 80%

**Q.** What about the inhibition of growth at 20 ppm [1] of the same molecule?
**A.** ≥ 80%

**Q.** And the inhibition of growth at 20 ppm [2]?
**A.** ≥ 70%

**Q.** And the inhibition of growth at 20 ppm [3]?
**A.** ≥ 80%

**Q.** What about the inhibition of growth at 20 ppm (Sclerotinia sclerotiorum) of the same molecule?
**A.** ≥ 80%

**Q.** What about the inhibition of growth at 20 ppm [4] of the same molecule?
**A.** ≥ 80%

**Q.** And the inhibition of growth at 20 ppm [5]?
**A.** ≥ 80%

**Q.** Which inhibition of growth at 20 ppm (Fusarium culmorum) does the source give for CC1(C)CC(Cc2cccc(F)c2)N=C(c2cnc3c(F)c(F)ccc3c2)O1 (stereo not drawn) [E-19, 2-(7,8-difluoro-3-quinolyl)-4-[(3-fluorophenyl)methyl]-6,6-dimethyl-4,5-dihydro-1,3-oxazine] here?
**A.** ≥ 80%

**Q.** What about the inhibition of growth at 20 ppm [1] of the same molecule?
**A.** ≥ 80%

**Q.** What about the melting point of the same molecule?
**A.** 95 to 98 °C

**Q.** What about the inhibition of growth at 20 ppm [2] of the same molecule?
**A.** ≥ 70%

**Q.** And the pest or weed control at 60 ppm [6]?
**A.** ≥ 80%

**Q.** What about the inhibition of growth at 20 ppm [3] of the same molecule?
**A.** ≥ 80%

**Q.** What about the inhibition of growth at 20 ppm (Sclerotinia sclerotiorum) of the same molecule?
**A.** ≥ 80%

**Q.** What about the inhibition of growth at 20 ppm [5] of the same molecule?
**A.** ≥ 80%

**Q.** Which inhibition of growth at 20 ppm (Fusarium culmorum) does the source give for CC1(C)CC(Cc2ccccc2F)N=C(c2cnc3c(F)c(F)ccc3c2)O1 (stereo not drawn) [E-20, 2-(7,8-difluoro-3-quinolyl)-4-[(2-fluorophenyl)methyl]-6,6-dimethyl-4,5-dihydro-1,3-oxazine] here?
**A.** ≥ 80%

**Q.** And the inhibition of growth at 20 ppm [1]?
**A.** ≥ 80%

**Q.** And the pest or weed control at 60 ppm [6]?
**A.** ≥ 80%

**Q.** And the inhibition of growth at 20 ppm [3]?
**A.** ≥ 80%

**Q.** What about the inhibition of growth at 20 ppm [5] of the same molecule?
**A.** ≥ 80%

**Q.** With Fc1ccc2cc(C3=NC(Cc4ccccc4)CC4(CCCC4)O3)cnc2c1F (stereo not drawn) [E-21, 9-benzyl-7-(7,8-difluoro-3-quinolyl)-6-oxa-8-azaspiro[4.5]dec-7-ene] as the molecule, how does the inhibition of growth at 20 ppm [1] read?
**A.** ≥ 80%

**Q.** And the inhibition of growth at 20 ppm [2]?
**A.** ≥ 70%

**Q.** And the pest or weed control at 60 ppm [6]?
**A.** ≥ 80%

**Q.** What about the inhibition of growth at 20 ppm [3] of the same molecule?
**A.** ≥ 80%

**Q.** And the inhibition of growth at 20 ppm [5]?
**A.** ≥ 80%

**Q.** For Cc1nc2c(F)c(F)ccc2cc1C1=NC(Cc2ccccc2)CC(C)(C)O1 (stereo not drawn) [E-22, 4-benzyl-2-(7,8-difluoro-2-methyl-3-quinolyl)-6,6-dimethyl-4,5-dihydro-1,3-oxazine], which inhibition of growth at 20 ppm (Fusarium culmorum) is on record?
**A.** ≥ 80%

**Q.** And the inhibition of growth at 20 ppm [2]?
**A.** ≥ 70%

**Q.** What about the pest or weed control at 60 ppm [6] of the same molecule?
**A.** ≥ 80%

**Q.** And the inhibition of growth at 20 ppm [3]?
**A.** ≥ 80%

**Q.** And the inhibition of growth at 20 ppm (Sclerotinia sclerotiorum)?
**A.** ≥ 80%

**Q.** And the inhibition of growth at 20 ppm [5]?
**A.** ≥ 80%

**Q.** With Fc1ccc2cc(C3=NC(Cc4ccccc4)CC4(CCC4)O3)cnc2c1F (stereo not drawn) [E-23, 8-benzyl-6-(7,8-difluoro-3-quinolyl)-5-oxa-7-azaspiro[3.5]non-6-ene] as the molecule, how does the melting point read?
**A.** 159 to 162 °C

**Q.** What about the pest or weed control at 60 ppm [6] of the same molecule?
**A.** ≥ 80%

**Q.** And the inhibition of growth at 20 ppm [3]?
**A.** ≥ 80%

**Q.** What about the inhibition of growth at 20 ppm [5] of the same molecule?
**A.** ≥ 80%

**Q.** Which melting point does the source give for Cc1nc2c(F)c(F)ccc2cc1C1=NC(Cc2ccc(F)cc2)CC(C)(C)O1 (stereo not drawn) [E-24, 2-(7,8-difluoro-2-methyl-3-quinolyl)-4-[(4-fluorophenyl)methyl]-6,6-dimethyl-4,5-dihydro-1,3-oxazine] here?
**A.** 128 to 132 °C

**Q.** What about the inhibition of growth at 20 ppm [2] of the same molecule?
**A.** ≥ 70%

**Q.** What about the pest or weed control at 60 ppm [6] of the same molecule?
**A.** ≥ 80%

**Q.** And the inhibition of growth at 20 ppm [3]?
**A.** ≥ 80%

**Q.** What about the inhibition of growth at 20 ppm [5] of the same molecule?
**A.** ≥ 80%

**Q.** Which results are given for CC1(C)CC(Cc2ccccc2)N=C(c2cnc3c(F)c(F)ccc3c2)O1 (stereo not drawn) [F-5]?
**A.** inhibition of growth at 20 ppm (Fusarium culmorum): ≥ 80%; inhibition of growth at 20 ppm [1]: ≥ 80%; inhibition of growth at 20 ppm [2]: ≥ 70%; pest or weed control at 60 ppm [6]: ≥ 80%; inhibition of growth at 20 ppm [3]: ≥ 80%; inhibition of growth at 20 ppm (Sclerotinia sclerotiorum): ≥ 80%; inhibition of growth at 20 ppm [5]: ≥ 80%

**Q.** With CC1(C)CC(Cc2ccc(F)cc2)N=C(c2cnc3c(F)c(F)ccc3c2)O1 (stereo not drawn) [F-7] as the molecule, how does the inhibition of growth at 20 ppm (Fusarium culmorum) read?
**A.** ≥ 80%

**Q.** And the melting point?
**A.** 117 to 119 °C

**Q.** What about the pest or weed control at 60 ppm [6] of the same molecule?
**A.** ≥ 80%
